pIC50: −log10 of the molar value.
Target: T1, full-length MALT1 protein (Strep-MALT1(1-824)-His) (Homo sapiens, UniProt Q9UDY8)
T1 sequence (Q9UDY8 1-824): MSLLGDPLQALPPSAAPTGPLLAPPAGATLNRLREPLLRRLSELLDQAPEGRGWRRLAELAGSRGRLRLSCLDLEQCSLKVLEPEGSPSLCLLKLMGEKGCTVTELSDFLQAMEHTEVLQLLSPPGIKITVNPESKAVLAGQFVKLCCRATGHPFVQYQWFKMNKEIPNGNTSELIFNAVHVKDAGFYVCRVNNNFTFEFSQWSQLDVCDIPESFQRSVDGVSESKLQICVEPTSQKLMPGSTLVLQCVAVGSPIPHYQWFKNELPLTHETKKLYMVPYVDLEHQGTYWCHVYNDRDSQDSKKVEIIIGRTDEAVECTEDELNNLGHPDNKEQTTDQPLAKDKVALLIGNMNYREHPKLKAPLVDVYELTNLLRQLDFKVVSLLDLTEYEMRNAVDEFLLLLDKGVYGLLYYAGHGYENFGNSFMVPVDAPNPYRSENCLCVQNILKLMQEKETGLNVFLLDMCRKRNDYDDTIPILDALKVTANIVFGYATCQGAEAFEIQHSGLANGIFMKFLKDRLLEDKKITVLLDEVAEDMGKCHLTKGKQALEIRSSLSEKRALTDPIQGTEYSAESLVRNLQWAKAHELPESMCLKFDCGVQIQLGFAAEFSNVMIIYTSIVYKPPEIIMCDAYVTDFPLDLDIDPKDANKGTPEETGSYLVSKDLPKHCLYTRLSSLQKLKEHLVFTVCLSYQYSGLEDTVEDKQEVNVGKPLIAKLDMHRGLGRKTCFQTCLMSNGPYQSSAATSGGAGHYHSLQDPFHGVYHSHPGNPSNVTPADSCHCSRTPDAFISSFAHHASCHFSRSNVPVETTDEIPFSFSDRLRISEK
Assay: biochemical
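Also: fluorogenic LRSR-AMC substrate cleavage by MALT1, 50 min compound preincubation then 4 h reaction at RT, 11-point dilution from 30 µM, scaled between enzyme-free and untreated enzyme controls.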

pIC50 | Structure (SMILES)
5.25 | O=C(Nc1cnc(-n2nccn2)c(Cl)c1)c1cnn(-c2cccc(-c3ccco3)n2)c1C(F)(F)F [Cpd 207, N-(5-chloro-6-(2H-1,2,3-triazol-2-yl)pyridin-3-yl)-1-(6-(furan-2-yl)pyridin-2-yl)-5-(trifluoromethyl)-1H-pyrazole-4-carboxamide]
6.34 | N#Cc1cc(NC(=O)c2cnn(-c3ccnc(Cl)c3)c2C(F)(F)F)cnc1-n1nccn1 [Cpd 39, 1-(2-chloropyridin-4-yl)-N-(5-cyano-6-(2H-1,2,3-triazol-2-yl)pyridin-3-yl)-5-(trifluoromethyl)-1H-pyrazole-4-carboxamide]
6.35 | O=C(Nc1cnc(-n2nccn2)c(Cl)c1)c1cnn(-c2c(F)cc(F)cc2Cl)c1C(F)(F)F [Cpd 94, 1-(2-chloro-4,6-difluorophenyl)-N-(5-chloro-6-(2H-1,2,3-triazol-2-yl)pyridin-3-yl)-5-(trifluoromethyl)-1H-pyrazole-4-carboxamide]
6.44 | N#Cc1cc(NC(=O)c2cnn(-c3ccc(F)cc3C(F)(F)F)c2C(F)(F)F)cnc1-n1nccn1 [Cpd 115, N-(5-cyano-6-(2H-1,2,3-triazol-2-yl)pyridin-3-yl)-1-(4-fluoro-2-(trifluoromethyl)phenyl)-5-(trifluoromethyl)-1H-pyrazole-4-carboxamide]
6.13 | Cc1nc(-n2ncc(C(=O)Nc3cnc(-n4nccn4)c(Cl)c3)c2C(F)(F)F)ccc1F [Cpd 161, N-(5-chloro-6-(2H-1,2,3-triazol-2-yl)pyridin-3-yl)-1-(5-fluoro-6-methylpyridin-2-yl)-5-(trifluoromethyl)-1H-pyrazole-4-carboxamide]
6.50 | Cc1ccc(F)cc1-n1ncc(C(=O)Nc2cnc(-n3nccn3)c(Cl)c2)c1C(F)(F)F [Cpd 96, N-(5-chloro-6-(2H-1,2,3-triazol-2-yl)pyridin-3-yl)-1-(5-fluoro-2-methylphenyl)-5-(trifluoromethyl)-1H-pyrazole-4-carboxamide]
5.59 | O=C(Nc1cnc(-n2nccn2)c(Cl)c1)c1cnn(-c2cnccn2)c1C(F)(F)F [Cpd 9, N-(5-Chloro-6-(2H-1,2,3-triazol-2-yl)pyridin-3-yl)-1-(pyrazin-2-yl)-5-(trifluoromethyl)-1H-pyrazole-4-carboxamide]
5.15 | O=C(Nc1cnc(-n2nccn2)c(Cl)c1)c1cnn(-c2ccccc2)c1F [Cpd 26, N-(5-chloro-6-(2H-1,2,3-triazol-2-yl)pyridin-3-yl)-5-fluoro-1-phenyl-1H-pyrazole-4-carboxamide]
6.19 | O=C(Nc1cnc(-n2nccn2)c(Cl)c1)c1cnn(-c2ccc(F)c(F)c2)c1C(F)(F)F [Cpd 78, N-(5-chloro-6-(2H-1,2,3-triazol-2-yl)pyridin-3-yl)-1-(3,4-difluorophenyl)-5-(trifluoromethyl)-1H-pyrazole-4-carboxamide]
5.88 | Cc1nc(N)ccc1-n1ncc(C(=O)Nc2cnc(-n3nccn3)c(C#N)c2)c1C(F)(F)F [Cpd 196, 1-(6-amino-2-methylpyridin-3-yl)-N-(5-cyano-6-(2H-1,2,3-triazol-2-yl)pyridin-3-yl)-5-(trifluoromethyl)-1H-pyrazole-4-carboxamide]
5.81 | N#Cc1cc(-n2ncc(C(=O)Nc3cnc(-n4nccn4)c(C#N)c3)c2C(F)(F)F)ccc1F [Cpd 86, 1-(3-cyano-4-fluorophenyl)-N-(5-cyano-6-(2H-1,2,3-triazol-2-yl)pyridin-3-yl)-5-(trifluoromethyl)-1H-pyrazole-4-carboxamide]
6.58 | N#Cc1cc(NC(=O)c2cnn(-c3cccc(N)n3)c2C(F)(F)F)cnc1-n1nccn1 [Cpd 134, 1-(6-aminopyridin-2-yl)-N-(5-cyano-6-(2H-1,2,3-triazol-2-yl)pyridin-3-yl)-5-(trifluoromethyl)-1H-pyrazole-4-carboxamide]
5.40 | COc1ccnc(-n2ncc(C(=O)Nc3cnc(-n4nccn4)c(C#N)c3)c2C(F)(F)F)c1Cl [Cpd 66, 1-(3-chloro-4-methoxypyridin-2-yl)-N-(5-cyano-6-(2H-1,2,3-triazol-2-yl)pyridin-3-yl)-5-(trifluoromethyl)-1H-pyrazole-4-carboxamide]
6.30 | Cc1cccc(F)c1-n1ncc(C(=O)Nc2cnc(-n3nccn3)c(Cl)c2)c1C(F)(F)F [Cpd 92, N-(5-chloro-6-(2H-1,2,3-triazol-2-yl)pyridin-3-yl)-1-(2-fluoro-6-methylphenyl)-5-(trifluoromethyl)-1H-pyrazole-4-carboxamide]
6.35 | Cc1cc(N)ncc1-n1ncc(C(=O)Nc2cnc(-n3nccn3)c(C#N)c2)c1C(F)(F)F [Cpd 190, 1-(6-amino-4-methylpyridin-3-yl)-N-(5-cyano-6-(2H-1,2,3-triazol-2-yl)pyridin-3-yl)-5-(trifluoromethyl)-1H-pyrazole-4-carboxamide]
6.22 | Cc1c(F)ccc(-n2ncc(C(=O)Nc3cnc(-n4nccn4)c(C#N)c3)c2C(F)(F)F)c1Cl [Cpd 72, 1-(2-chloro-4-fluoro-3-methylphenyl)-N-(5-cyano-6-(2H-1,2,3-triazol-2-yl)pyridin-3-yl)-5-(trifluoromethyl)-1H-pyrazole-4-carboxamide]
6.28 | N#Cc1cc(F)ccc1-n1ncc(C(=O)Nc2cnc(-n3nccn3)c(C#N)c2)c1C(F)(F)F [Cpd 135, 1-(2-cyano-4-fluorophenyl)-N-(5-cyano-6-(2H-1,2,3-triazol-2-yl)pyridin-3-yl)-5-(trifluoromethyl)-1H-pyrazole-4-carboxamide]
6.32 | N#Cc1cnccc1-n1ncc(C(=O)Nc2cnc(-n3nccn3)c(C#N)c2)c1C(F)(F)F [Cpd 46, N-(5-cyano-6-(2H-1,2,3-triazol-2-yl)pyridin-3-yl)-1-(3-cyanopyridin-4-yl)-5-(trifluoromethyl)-1H-pyrazole-4-carboxamide]
5.31 | Cc1c[n+]([O-])ccc1-n1ncc(C(=O)Nc2cnc(-n3nccn3)c(Cl)c2)c1C(F)(F)F [Cpd 153, 4-(4-((5-chloro-6-(2H-1,2,3-triazol-2-yl)pyridin-3-yl)carbamoyl)-5-(trifluoromethyl)-1H-pyrazol-1-yl)-3-methylpyridine 1-oxide]
5.24 | COc1ccnc(-n2ncc(C(=O)Nc3cnc(-n4nccn4)c(Cl)c3)c2C(F)(F)F)c1Cl [Cpd 65, 1-(3-chloro-4-methoxypyridin-2-yl)-N-(5-chloro-6-(2H-1,2,3-triazol-2-yl)pyridin-3-yl)-5-(trifluoromethyl)-1H-pyrazole-4-carboxamide]
5.69 | COc1cc(-n2ncc(C(=O)Nc3cnc(-n4nccn4)c(C#N)c3)c2C(F)(F)F)ccn1 [Cpd 41, N-(5-Cyano-6-(2H-1,2,3-triazol-2-yl)pyridin-3-yl)-1-(2-methoxypyridin-4-yl)-5-(trifluoromethyl)-1H-pyrazole-4-carboxamide]
6.08 | N#Cc1cc(NC(=O)c2cnn(-c3ccc(F)c(N4CC(O)C4)n3)c2C(F)(F)F)cnc1-n1nccn1 [Cpd 152, N-(5-cyano-6-(2H-1,2,3-triazol-2-yl)pyridin-3-yl)-1-(5-fluoro-6-(3-hydroxyazetidin-1-yl)pyridin-2-yl)-5-(trifluoromethyl)-1H-pyrazole-4-carboxamide]
6.00 | O=C(Nc1cnc(-n2nccn2)c(Cl)c1)c1cnn(-c2ccc(F)cc2C(F)(F)F)c1C(F)(F)F [Cpd 114, N-(5-chloro-6-(2H-1,2,3-triazol-2-yl)pyridin-3-yl)-1-(4-fluoro-2-(trifluoromethyl)phenyl)-5-(trifluoromethyl)-1H-pyrazole-4-carboxamide]
